From PMC11211886 (Frontiers in Pharmacology, 2024)
Where two headings read alike, the source gives them in different places.

Columns and labels:
[1] = Single-dose PK in SD rats (IV/PO); parameters: species or system SD rat; conditions: in vivo
From the text: For the single-dose PK study, twenty-four rats were divided into four groups, with six rats (male: female = 1:1) in each group.

[2] = Whole blood-to-plasma partition, rat blood; format: in vitro ADME
Procedure: The whole blood and plasma samples were incubated at 37°C for up to 1 h. Serial samples (150 µL) were collected at different time points (0, 10, and 60 min) and transferred into new tubes. The whole blood samples were then centrifuged at 1700 g for 15 min to harvest plasma.

[3] = Metabolic stability in human liver microsomes; format: in vitro ADME
Procedure: FMO was deactivated by heating liver microsomes at 45°C for 5 min. […] The natural logarithm of the percentage of the drug remaining was plotted against the incubation time, and the slope of the linear regression (-k) was converted to in vitro half-lives (t1/2) using the following equation: […] (1) metabolic clearance is the major mechanism of clearance; (2) liver is the major organ of clearance; and (3) oxidation is the major metabolic pathway. CLint,in vitro=k / Cmicrosomes , Scaled CLint,in vivo=CLint,in vitro×microsomes yield×liver weight, where Cmicrosomes means the experimental protein concentration (0.5 mg/mL) in the incubation system. […] Then, the scaled in vivo intrinsic clearance was used to predict the systemic clearance (equal to the hepatic clearance) using the well-stirred venous equilibration model ([Houston, 1994]).

CYP2B6 = target: T1, CYP2B6 (Homo sapiens, UniProt P20813); assay: Time-dependent CYP inhibition in HLM, CYP2B6; format: in vitro ADME; conditions: 10 μM, 30 min pre-incubation with NADPH
T1 construct: tissue Life Technologies (Durham, NC, USA); host or cells: human liver microsomes
T1 sequence (P20813 1-491): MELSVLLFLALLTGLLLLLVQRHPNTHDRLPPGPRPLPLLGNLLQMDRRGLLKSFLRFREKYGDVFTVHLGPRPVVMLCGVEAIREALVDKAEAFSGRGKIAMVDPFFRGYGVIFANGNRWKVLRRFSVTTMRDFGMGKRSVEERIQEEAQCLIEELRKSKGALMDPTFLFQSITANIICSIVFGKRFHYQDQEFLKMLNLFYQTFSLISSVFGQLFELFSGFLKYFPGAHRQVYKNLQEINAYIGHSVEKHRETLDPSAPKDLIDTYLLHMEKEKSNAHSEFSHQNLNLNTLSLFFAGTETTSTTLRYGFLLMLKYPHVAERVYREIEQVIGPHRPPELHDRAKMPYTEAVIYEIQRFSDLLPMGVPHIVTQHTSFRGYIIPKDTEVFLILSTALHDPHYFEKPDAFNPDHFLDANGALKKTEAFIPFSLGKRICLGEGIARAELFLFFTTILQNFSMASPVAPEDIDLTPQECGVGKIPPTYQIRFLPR
Procedure: The procedure of time-dependent CYP inhibition was similar to that used for CYP reversible inhibition, as mentioned above, except that a pre-incubation step was added. […] Another appropriate volume of the NADPH-regenerating system and probe substrate were added to initiate the CYP isoform enzyme activity test step. For this step, the incubation period was 10 min, except for CYP2B6, CYP2C8, and CYP3A4/5 (probe substrate: midazolam), which was 3 min to make sure the reaction was under initial linear rates. After incubation for the designated time periods at 37°C, the ice-cold acetonitrile containing IS was added to quench the reaction. […] (Ainactivator/[…] represents the enzyme activity remaining due to the inhibition by the diluted inactivator in the enzyme activity test step, and (Ainactivator/[…] represents the remaining enzyme activity due to pre-incubation loss plus inhibition by the diluted inactivator in the enzyme activity test step.

CYP3A4 = assay: CYP induction in human hepatocytes, CYP3A4 enzyme activity; format: in vitro ADME
Procedure: […] […] […] Enzyme activity for each CYP isoform was reported as a fold change over vehicle control and the percent of positive control (detailed calculation in Supplementary 1.1). Hepatocytes were harvested with a lysis buffer from RNeasy 96 Kit (Qiagen Inc., Germantown, MD, USA) to isolate RNA, which was analyzed by real-time quantitative polymerase chain reaction (RT-PCR). […] Emax (the maximal observed induction) and EC50 (the concentration that supports half-maximal induction) were estimated by non-linear regression of fold increase in CYP mRNA expression versus concentration plots.
The fold of vehicle control and the percent of positive control were calculated with the formulas below:
Fold of vehicle control = CYPs activity of test compound (or positive control) treated sample / CYPs activity of vehicle control treated sample
% of positive control = [(fold change in treated sample)-1] / [(fold change in positive control)-1] × 100

[4] = both sexes, SD, rat, iv, 5 mg/kg
[5] = both sexes, SD, rat, po, 1 mg/kg
[6] = both sexes, SD, rat, po, 5 mg/kg
[7] = both sexes, SD, rat, po, 25 mg/kg

In the case of `C[C@H](Nc1ncnc(N)c1C#N)c1cc2ncc(Cl)n2nc1-c1ccccc1` [Amdizalisib], the AUC(0-inf) [1, 4] is reported as 13900 ng·h/mL, the AUC(0-t) [1, 4] is reported as 13900 ng·h/mL and the MRT [1, 4] is reported as 4.6 ± 2.85 h. For the same compound, the Vd [1, 4] was 1.68 ± 0.153 L/kg, the clearance [1, 4] was 9.12 ± 6.31 mL/min/kg and the AUC(0-inf) [1, 5] was 1320 ng·h/mL. The AUC(0-t) [1, 5] was 1140 ng·h/mL, the Cmax [1, 5] was 115 ± 79.1 ng/mL and the MRT [1, 5] was 7.9 ± 5.28 h. For the same compound, the AUC(0-inf) [1, 6] was 6130 ng·h/mL, the AUC(0-t) [1, 6] was 6040 ng·h/mL and the Cmax [1, 6] was 622 ± 257 ng/mL. For the same compound, the MRT [1, 6] was 7.84 ± 5.51 h, the Tmax [1, 6] was 1.5 ± 0.548 h and the half-life [1, 6] was 5.11 ± 4 h. For the same compound, the AUC(0-inf) [1, 7] was 52600 ng·h/mL, the AUC(0-t) [1, 7] was 52400 ng·h/mL and the Cmax [1, 7] was 3350 ng/mL. It also gave an MRT [1, 7] of 11 ± 6.61 h, a half-life [1, 7] of 5.62 ± 2.86 h and a half-life ([1]; both sexes, SD rat, fasted, IV 5 mg/kg, read-out: t1/2 (converted)) of 3.61 ± 2.01 h. The Tmax ([1]; both sexes, SD rat, fasted, PO 1 mg/kg, read-out: Tmax) was 2.67 ± 1.75 h, the half-life ([1]; both sexes, SD rat, fasted, PO 1 mg/kg, read-out: t1/2 (converted)) was 4.94 ± 3.35 h and the Tmax ([1]; both sexes, SD rat, fasted, PO 25 mg/kg, read-out: Tmax) was 4.17 ± 2.23 h. For the same compound, the “CL as % of the hepatic blood flow” value ([1]; both, Sprague-Dawley, rat, iv) was 16.6%, the RB ([2]; rat blood, 1 μM, 0 min) was 1.08 and the RB ([2]; rat blood, 1 μM, 60 min) was 1.03. It also gave a fuB ([2]; rat blood, 10 min) of 8.41%, a fuB ([2]; rat, 0 min, 1 µM) of 9.11% and a fup ([2]; rat, 1 µM) of 0.0980. For the same compound, the RB ([2]; rat, 10 min, 1 µM) was 1.16, the fuB ([2]; rat, 60 min, 1 µM) was 9.49% and the “Predicted CL sys” value ([3]; female human liver microsomes, FMO deactivation) was 5.07 mL/min/kg. The CLint scaled at 1 µM ([3]; female, human, microsomes, pH 7.4, Predicted CL int, iv vivo) was 5.78 mL/min/kg, the half-life at 1 µM ([3]; female, human, microsomes, pH 7.4, in vitro t1/2) was 2.32 h and the parent drug remaining ([3]; male, human, microsomes, 2 h, 1 µM, pH 7.4) was over 80%. The “activity loss of CYP2B6” value (CYP2B6) was “less than 10%”, the “Enzyme activity Percent of PC (%)” value (CYP3A4; CYP3A4, donor seven, 1 µM) was 4.50% and the “Enzyme activity Percent of PC (%)” value (CYP3A4; CYP3A4, donor seven, 3 µM) was 4.60%. The “Enzyme activity Percent of PC (%)” value (CYP3A4; CYP3A4, donor seven, 10 µM) was 19.8%, the “Enzyme activity Percent of PC (%)” value (CYP3A4; CYP3A4, donor seven, 20 µM) was 5.20% and the “Enzyme activity Percent of PC (%)” value (CYP3A4; CYP3A4, donor seven, 30 µM) was 4.60%. The “Enzyme activity Percent of PC (%)” value (CYP3A4; CYP3A4, donor six, 1 µM) was 0.50%, the “Enzyme activity Percent of PC (%)” value (CYP3A4; CYP3A4, donor six, 3 µM) was 3.60% and the “Enzyme activity Percent of PC (%)” value (CYP3A4; CYP3A4, donor six, 10 µM) was 19.8%. The “Enzyme activity Percent of PC (%)” value (CYP3A4; CYP3A4, donor six, 20 µM) was 28.9%, the “Enzyme activity Percent of PC (%)” value (CYP3A4; CYP3A4, donor six, 30 µM) was 17.7% and the “Enzyme activity Percent of PC (%)” value (CYP3A4; CYP3A4, donor two, 1 µM) was 0.10%. The “Enzyme activity Percent of PC (%)” value (CYP3A4; CYP3A4, donor two, 3 µM) was 0.40%, the “Enzyme activity Percent of PC (%)” value (CYP3A4; CYP3A4, donor two, 10 µM) was 4.40% and the “Enzyme activity Percent of PC (%)” value (CYP3A4; CYP3A4, donor two, 20 µM) was 1.30%. The “Enzyme activity Percent of PC (%)” value (CYP3A4; CYP3A4, donor two, 30 µM) was 1.40% and the “induction of CYP3A4 enzyme activity” value (CYP3A4; up to 30.0 µM, all three donors) was “not considered an inducer”.
